Measured values: US12398155B2, “Thienopyridinone compounds” (Janssen Pharmaceutica NV, priority 2019, dated 2025)

Assays:
[1] = tested on: NIH/3T3 cells overexpressing FGFR3 WT-TACC3 fusion protein; test: NIH/3T3 FGFR3 WT-TACC3 cellular phospho-ERK assay (in vitro PD assay); type: cell-based; conditions: Mus musculus, NIH3T3; 1-hr incubation, AlphaLISA p-ERK1/2; read-out: NIH/3T3 FGFR3 WT-TACC3 pERK
Protocol: NIH/3T3 FGFR3 WT-TACC3 Cellular Phospho-ERK Assay (In Vitro PD Assay)
50 μL of cell suspension (NIH/3T3 cells overexpressing FGFR3 WT-TACC3 fusion protein) (total 10,000 cells per well in growth medium (DMEM containing 1% Glutamax, 10% FBS and 1% Pen/Strep)) was seeded in a 384-well plate. After overnight incubation at 37° C. and 5% CO2, 5.5 μL of growth medium containing 10× testing compound was added into cell cultures (10 dose points with 4× serial dilution, starting with 10 μM, 0.1% DMSO final). After 1-hr incubation at 37° C. and 5% CO2, the medium was depleted and AlphaLISA SureFire Ultra p-ERKI1/2 (Thr202/Tyr204) Assay Kit (from PerkinElmer) was applied for phospho-ERK level detection according to the kit instructions. The RFUs (relative fluorescence units were measured on EnVision microplate reader (ex. 680 nm, em. 615 nm) and concentration-response curve was plotted using Prism to calculate IC50 (M), pIC50 (−log IC50) and HillSlope value.

[2] = target: T1, human FGFR3 V555L enzyme (cytoplasmic domain carrying V555L mutation) (Homo sapiens, UniProt P22607, V555L); test: FGFR3 V555L mobility shift assay (enzymatic assay); type: biochemical; conditions: 40 μM ATP, 50 minutes at 30° C.; read-out: FGFR3 V555L Caliper
T1 construct: cytoplasmic domain carrying V555L mutation, from Cama Biosciences; purchased Cama Biosciences (so in the source)
T1 sequence (P22607 397-806 V555L limits assumed): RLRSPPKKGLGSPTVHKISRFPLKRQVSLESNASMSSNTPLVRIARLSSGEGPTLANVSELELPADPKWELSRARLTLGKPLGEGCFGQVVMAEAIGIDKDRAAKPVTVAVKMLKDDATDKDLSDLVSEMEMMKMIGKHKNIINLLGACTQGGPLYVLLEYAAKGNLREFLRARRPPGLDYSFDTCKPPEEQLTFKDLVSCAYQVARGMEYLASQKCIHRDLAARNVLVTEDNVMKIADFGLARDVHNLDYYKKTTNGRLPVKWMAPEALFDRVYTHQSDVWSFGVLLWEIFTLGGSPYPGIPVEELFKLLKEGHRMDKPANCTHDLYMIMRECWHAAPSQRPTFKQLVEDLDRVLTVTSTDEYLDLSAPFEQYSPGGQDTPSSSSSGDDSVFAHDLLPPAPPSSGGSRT
Protocol: FGFR3 V555L Mobility Shift Assay (Enzymatic Assay)
(§1) In a final reaction volume of 25 μL, 0.04 ng/μL human FGFR3 V555L enzyme (cytoplasmic domain carrying V555L mutation, from Cama Biosciences) was incubated with 40 μM ATP, 1 μM FL-peptide 30 substrate and 250 nL of testing compound (1% DMSO final) in assay buffer (100 mM HEPES pH 7.4, 10 mM MgCl2, 0.003% Brij35, 1 mM DTT). After incubation for 50 minutes at 30° C. the reaction was stopped with 10 μL of 0.5M EDTA pH 8.0, and then 25 μL of reaction mixture was transferred to reading plate and measured on Caliper EZ reader II. The substrate-product conversion rate was used as raw data for normalization and concentration-response curve (10 dose points with 4× serial dilution, starting with 10 μM) was plotted using Prism to calculate IC50 (M), pIC50 (−log IC50) and HillSlope value.

[3] = tested on: NIH/3T3 cells transfected with control vector; test: NIH/3T3 mock cell proliferation assay (counter assay, general toxicity); type: cell-based; conditions: Mus musculus, NIH3T3; 72-hr incubation, CellTiter Glo; read-out: NIH/3T3 MOCK CTG
Protocol: NIH/3T3 Mock Cell Proliferation Assay
(§2) In day 1, 90 μL of cell suspension (NIH/3T3 cells transfected with the same control vector as in the above two proliferation assays) (total 30,000 cells per well in growth medium (DMEM containing 1% Glutamax, 10% FBS and 1% Pen/Strep)) was seeded in a 96-well plate and then incubated overnight at 37° C. and 5% CO2. In day 2, 10 μL of growth medium containing 10-fold stock solution of testing compound was added into cell cultures (9 dose points with 3× serial dilution, starting with 30 μM, 0.3% DMSO final). After 72-hr incubation at 37° C. and 5% CO2, in day 5 a volume of 50 μL CellTiter Glo (CTG) reagent was added into cell-containing 96-well plate and the plate was incubated at room temperature for 10 minutes before RLUs (relative light unit) were measured on a microplate reader with luminescence detection module. The RLU value was normalized to survival % and concentration-response curve was plotted using Prism to calculate IC50 (M), pIC50 (−log IC50) and HillSlope value.

[4] = target: T2, human FGFR3 wild type enzyme (cytoplasmic domain) (Homo sapiens, UniProt P22607); test: FGFR3 wild type mobility shift assay (enzymatic assay); type: biochemical; conditions: 75 μM ATP, 50 minutes at 30° C.; read-out: FGFR3 wild type Caliper
T2 construct: human FGFR3 wild type enzyme (cytoplasmic domain, from Cama Biosciences); purchased Cama Biosciences (so in the source)
T2 sequence (P22607 397-806 limits assumed): as the sequence (P22607 397-806 V555L limits assumed) above, with L159V counted along it
Protocol: FGFR3 Wild Type Mobility Shift Assay (Enzymatic Assay)
as §1, with “wild type” for “V555L”, “domain,” for “domain carrying V555L mutation,”, “75” for “40”

[5] = target: T3, NIH/3T3 cells overexpressing FGFR3 WT-TACC3 fusion protein (Homo sapiens, UniProt P22607); test: NIH/3T3 FGFR3 WT-TACC3 cell proliferation assay; type: cell-based; conditions: 72-hr incubation, CellTiter Glo; read-out: NIH/3T3 FGFR3 WT-TACC3 CTG
T3 construct: NIH/3T3 FGFR3 WT-TACC3 CTG; other: 72-hr incubation, CellTiter Glo; fused on or other part: C-terminal part of TACC3 (coiled-coil) fused behind the FGFR3 kinase domain; Q9Y6A5 (Transforming acidic coiled-coil-containing protein 3)
T3 sequence (P22607 whole entry, change not shown, the tested form may be a part): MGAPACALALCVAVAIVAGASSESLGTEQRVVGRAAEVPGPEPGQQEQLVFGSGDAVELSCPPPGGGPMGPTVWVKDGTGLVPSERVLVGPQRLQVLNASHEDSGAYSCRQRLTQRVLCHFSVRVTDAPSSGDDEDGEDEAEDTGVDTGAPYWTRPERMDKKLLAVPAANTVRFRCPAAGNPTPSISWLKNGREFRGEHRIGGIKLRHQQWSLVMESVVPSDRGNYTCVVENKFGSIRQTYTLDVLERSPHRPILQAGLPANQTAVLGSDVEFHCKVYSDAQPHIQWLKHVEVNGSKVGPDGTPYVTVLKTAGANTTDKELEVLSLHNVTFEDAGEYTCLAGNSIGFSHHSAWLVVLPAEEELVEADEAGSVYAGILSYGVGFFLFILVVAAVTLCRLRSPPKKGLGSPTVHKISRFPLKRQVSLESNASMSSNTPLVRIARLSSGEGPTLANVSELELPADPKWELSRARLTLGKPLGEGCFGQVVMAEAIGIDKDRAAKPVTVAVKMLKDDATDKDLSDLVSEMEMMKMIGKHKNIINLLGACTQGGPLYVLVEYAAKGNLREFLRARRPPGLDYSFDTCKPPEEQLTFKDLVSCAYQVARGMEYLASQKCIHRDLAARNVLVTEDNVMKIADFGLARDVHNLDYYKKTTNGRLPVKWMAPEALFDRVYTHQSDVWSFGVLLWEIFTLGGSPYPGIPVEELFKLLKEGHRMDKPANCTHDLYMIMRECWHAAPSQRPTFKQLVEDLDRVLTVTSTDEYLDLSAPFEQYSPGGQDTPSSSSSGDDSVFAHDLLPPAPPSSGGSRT
Protocol: NIH/3T3 FGFR3 WT-TACC3 Cell Proliferation Assay
as §2, with “cells overexpressing FGFR3 WT-TACC3 fusion protein)” for “cells transfected with the same control vector as in the above two proliferation assays)”, “with 4×” for “with 3×”, “with 10” for “with 30”, “μM, 0.1%” for “μM, 0.3%”

IC50 [2]: 0.32 nM
IC50 [4]: 0.31 nM
GI50 [5]: 0.85 nM
Structure (SMILES): C[C@H](Nc1c(-c2nc3cnc(N4CCOCC4)cc3[nH]2)c(=O)[nH]c2ccsc12)c1ncccn1 [Compound 2, (S)-6-(6-Morpholino-1H-imidazo[4,5-c]pyridin-2-yl)-7-((1-(pyrimidin-2-yl)ethyl)amino)thieno[3,2-b]pyridin-5(4H)-one]
IC50 [1]: 1.09 nM
IC50 [3]: 891 nM
